# Source: patent publication US20130017198A1, “MANIPULATION OF CALCIUM CHANNELS TO REGULATE AFTER-DEPOLARIZATION EVENTS IN CARDIAC MYOCYTES” (THE UAB RESEARCH FOUNDATION, priority 2010, published 2013)
# “Also recorded” adds a separate entry of the source. Where two headings read alike, the source gives them in different places.
# Columns and labels:
# [1] = system: left atrial appendage (LAA); assay: ATX-II-induced after-contractions (mechanical activity) in paced superfused rat left atrial appendage
# Experimental: (§1) To determine whether ATX-II prolongs action potential duration and provokes after-depolarization and after-contractions, paced isolated rat LAA were superfused at 30° C., impaled with glass microelectrodes, and their action potentials were recorded. ATX-II was then added to the superfusate at about 30 nM and action potentials were recorded again.
# The LAA was externally paced at 1 Hz throughout.
# (§2) A series of experiments was performed to test the hypothesis that the calcium source for after-depolarization is the ARC channel. To test whether after-contractions and after-depolarization require ARC or SOCC activity, experiments were performed with the ARC channel inhibitor LOE-908 and with the SOCC inhibitor SKF-96365. Rat LAA were superfused at 30° C. and exposed to ˜30 nM ATX-II.
# [2] = system: left atrial appendage (LAA); assay: Action potential recording / after-depolarization in paced superfused rat LAA exposed to ATX-II; details: for action potential duration: ~30 nM ATX-II plus LOE-908 or SKF-96365
# Text: For example, isolated superfused muscles can be impaled with conventional glass microelectrodes of 10 to 30 MΩ resistance; these microelectrodes are filled with a solution of 3 M potassium chloride. Microelectrodes are routinely mounted on 30 μm silver-silver chloride spiral wire to allow for freedom of motion. Following the successful impalement of an individual myocyte, action potentials can be recorded with DC coupling at the center of the ring as the difference in voltage between the intracellular microelectrode and the extracellular silver-silver chloride reference electrode. Electrical signals are passed through a high-impedance capacitance-compensation preamplifier and are recorded on a personal computer at a sampling rate of […]. Subsequent data analysis of the action potentials of these muscles is performed using standard software (for an example of such a protocol, see Huang J et al., “Restitution properties during ventricular fibrillation in the in situ swine heart” Circulation 110:3161-3167 (2004), which is hereby incorporated by reference only for such teaching).
# as §1
# as §2, with “ATX-II. After 10-15 minutes, these muscles produced steady-state after-contractions, prolonged action potential duration and after-depolarization as shown previously.” for “ATX-II.”
# [3] = system: left atrial appendage (LAA); assay: Abnormal automatic activity of LAA at high ATX-II concentration; set-up: species or system rat
# Experimental: Although moderate concentrations of ATX-II appear to cause after-contractions, high concentrations of ATX-II cause abnormal automatic activity. To further test the hypothesis that after-contractions occur via a separate mechanism from abnormal automatic activity, LAA were exposed to high concentrations (60 nM) of ATX-II. The LAA were then exposed to one of 40 μM LOE-908 without pacing, 20 μM SKF-96365 with 1 Hz pacing, or 40 μM SKF-96365 with 1 Hz pacing.
# [4] = system: isolated rat cardiac muscle; assay: After-contractions in isolated rat cardiac muscle incubated with ATX-II and CPLA2 inhibitors; details: for IC50: isolated rat cardiac muscle incubated with ATX-II, read-out: IC50 (frequency of aftercontractions)
# Experimental: In a separate experiment, isolated rat cardiac muscle was incubated with ATX-II in the presence of varying concentrations of amylcinnamoyl-anthranilic acid.
# CPLA2 activity in vivo = details: cited from earlier work
# CPLA2 = target: T1, CPLA2 (Homo sapiens, UniProt P47712); details: selective inhibitor of CPLA2; cited from earlier work
# T1 sequence (P47712 1-749): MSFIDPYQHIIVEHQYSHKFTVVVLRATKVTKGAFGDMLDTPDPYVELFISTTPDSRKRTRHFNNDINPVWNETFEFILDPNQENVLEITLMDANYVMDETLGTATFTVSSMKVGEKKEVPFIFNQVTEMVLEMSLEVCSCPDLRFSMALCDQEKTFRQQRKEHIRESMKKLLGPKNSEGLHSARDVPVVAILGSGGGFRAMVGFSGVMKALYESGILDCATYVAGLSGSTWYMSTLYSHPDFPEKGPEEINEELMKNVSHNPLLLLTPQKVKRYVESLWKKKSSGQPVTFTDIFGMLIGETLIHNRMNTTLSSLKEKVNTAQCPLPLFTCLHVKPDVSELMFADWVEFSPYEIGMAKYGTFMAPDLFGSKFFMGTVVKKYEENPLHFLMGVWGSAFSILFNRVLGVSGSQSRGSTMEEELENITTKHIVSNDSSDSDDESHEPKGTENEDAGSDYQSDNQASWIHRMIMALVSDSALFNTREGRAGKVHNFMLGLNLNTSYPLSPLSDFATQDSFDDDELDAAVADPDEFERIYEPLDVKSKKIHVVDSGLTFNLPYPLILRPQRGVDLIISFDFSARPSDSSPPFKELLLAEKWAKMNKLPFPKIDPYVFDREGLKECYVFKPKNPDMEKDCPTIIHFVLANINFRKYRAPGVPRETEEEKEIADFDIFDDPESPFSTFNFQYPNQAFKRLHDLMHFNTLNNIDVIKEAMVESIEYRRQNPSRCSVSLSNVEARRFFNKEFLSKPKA
# ARC channel = target: T2, ARC channel (Rattus norvegicus, UniProt Q5M848+Q6AXR8); assay: Effect on ARC channel activity
# T2 construct: from tissue; host or cells: rat left atrial appendage (LAA) muscle
# [5] = target: T3, store-operated calcium channel (SOCC) (Rattus norvegicus, UniProt Q5M848); assay: Effect on store-operated calcium channel activity
# T3 construct: from tissue; host or cells: rat left atrial appendage (LAA) muscle
# [6] = system: left atrial appendage (LAA); assay: Abnormal automatic activity produced by 2-aminoethoxy diphenylborate (SOCC activator) in calcium-loaded LAA; details: calcium-loaded LAA treated with 2-aminoethoxy diphenylborate
# Experimental: To further test the hypothesis that the calcium source for after-depolarization is not the SOCC, calcium-loaded LAA were treated with 2-aminoethoxy diphenylborate (an activator of the SOCC) to produce abnormal automatic activity. The LAA were then treated with either LOE-908 or SKF-96365.
# [7] = LAA pre-treated with the compound, then ATX-II
# [8] = increasing concentrations, ~30 nM ATX-II, rat LAA at 30° C.
# [9] = increasing concentrations, ~30 nM ATX-II, data not shown
# [10] = 0.6 μM ryanodine, after steady-state ATX-II after-contractions
# T3 sequence (Q5M848 whole entry): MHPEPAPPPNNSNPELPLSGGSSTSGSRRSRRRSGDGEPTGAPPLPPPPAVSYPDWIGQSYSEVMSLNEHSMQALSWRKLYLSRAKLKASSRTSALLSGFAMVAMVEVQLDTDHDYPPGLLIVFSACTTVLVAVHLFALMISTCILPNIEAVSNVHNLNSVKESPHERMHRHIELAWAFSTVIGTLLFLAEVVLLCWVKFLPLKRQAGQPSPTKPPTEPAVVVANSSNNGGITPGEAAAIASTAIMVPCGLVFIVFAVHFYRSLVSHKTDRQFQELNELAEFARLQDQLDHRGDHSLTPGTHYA
# T2 sequence (Q5M848 whole entry, other chains not shown): as the sequence (Q5M848 whole entry) above
compound,measurement,setting,value
"ATX-II: Anemonia sulcata toxin, sodium channel regulator that increases the late sodium current; arrhythmic agent",concentration inducing arrhythmia and after-depolarization,[1],5 to 60 nM
same,after-contractions following each paced contraction,"[1]; 30 nM ATX-II, LAA paced at 1 Hz",after-contractions are observed
same,concentration below which the ability to induce arrhythmia starts to decrease,[1]; KH buffer with added glucose,10 to 50 nM
same,action potential duration and early after-depolarization,"[2]; 30 nM ATX-II, paced isolated rat LAA superfused at 30° C.",produced prolonged action potential duration and produced early after-depolarization during repolarization
same,rate of rapid contraction in the absence of pacing,"[3]; 60 nM ATX-II, FIG. 8A",4 Hz
same,rate of automatic activity persisting in the absence of pacing,"[3]; 60 nM ATX-II, FIG. 8B",2.7-3.3 Hz
same,after-contractions,"[3]; 60 nM ATX-II, left atria paced at 1 Hz",displayed after-contractions
same,abnormal automatic activity,[3]; higher concentration of ATX-II,displayed abnormal automatic activity
CCCCCc1ccc(/C=C/C(=O)Nc2ccccc2C(=O)O)cc1 [ACA],after-depolarization,[2],suppress after-depolarization
same,concentration as low as which after-depolarization is suppressed,[2],10 µM
same,after-depolarization,[2]; listed as amylcinnamoyl-anthranilic acid,effectively inhibit after-depolarization
same,after contractions,[4],suppress after contractions
same,concentration as low as which after contractions are suppressed,[4],10 µM
same,frequency of aftercontractions,[4]; 0-50 μM of ACA,decrease with increasing concentration
same,IC50,[4],10 ± 4.5 µM
"O=C(CCc1ccc(OCCS(=O)(=O)CCOC(c2ccc(Cl)cc2)c2ccc(Cl)cc2)cc1)C(F)(F)F [BMS-229724, 4-[4-[2-[2-[bis(4-chlorophenyl)methoxy]ethyl-sulfonyl]ethoxy]phenyl]-1,1,1-trifluoro-2-butanone]",CPLA2 activity in vivo / skin inflammation,CPLA2 activity in vivo,suppression of skin inflammation
same,IC50,CPLA2,2.8 µM
"COc1cccc2c1cc([N+](=O)[O-])c1c(C(=O)O)cc3c(c12)OCO3 [aristolochic acid, 8-methoxy-6-nitrophenanthro[3,4-d][1,3]dioxole-5-carboxylic acid]",after-depolarization,[2],effectively inhibit after-depolarization; also recorded: suppress after-depolarization
same,after contractions,[4],suppress after contractions
same,IC50,[4],31 ± 5 µM
COc1ccc(CCN(C)CCCC(C#N)(c2ccc(OC)c(OC)c2)C(C)C)cc1OC (stereo not drawn) [verapamil],production of after-contractions,"[1]; 10 μM verapamil, paced at 1 Hz, steady-state ATX-II after-contractions",did not affect the production of after-contractions
COc1ccc(S(=O)(=O)Nc2ccccc2CN(C)C/C=C/c2ccc(Cl)cc2)cc1 [KN-92],after-contractions,[1]; [7],does not prevent after-contractions; also recorded: does not suppress after-contractions
COc1cc2c(cc1OC)C(C(C(=O)N(CCc1ccc(OC)c(OC)c1OC)CCc1ccc(OC)c(OC)c1OC)c1ccccc1)=NCC2 (stereo not drawn) [LOE-908],ectopic contractions,[1]; 20 μM,no ectopic contractions are observed
same,concentration as low as which ectopic contractions are effectively reduced,[1]; cardiac muscle,1 µM
same,after-contractions,[1]; [8],suppressed after-contractions in a dose-dependent manner
same,concentration as low as which after-depolarization is effectively reduced,[2],1 µM
same,after-depolarization,[2]; 20 μM,no after-depolarization is observed
same,after-depolarization,[2]; [9],The same was observed
same,action potential duration,[2],remained prolonged
same,ARC channel activity,ARC channel,inhibit the activity of the ARC channel
same,store-operated calcium channel (SOCC) activity,[5],no effect on the activity of the store-operated calcium channel
same,abnormal automatic activity,"[3]; 60 nM ATX-II, 40 μM LOE-908 without pacing",failed to suppress abnormal automatic activity
COc1ccc(CCCOC(Cn2ccnc2)c2ccc(OC)cc2)cc1 (stereo not drawn) [SKF-96365],after-contractions,[1]; [8],suppressed after-contractions in a dose-dependent manner
same,rate of spontaneous contractions caused by activation of the SOCC,[6],reduces the rate of spontaneous contractions
same,after-depolarization,[2]; [9],The same was observed
same,action potential duration,[2],remained prolonged
same,abnormal automatic activity,"[3]; 60 nM ATX-II, 20 μM or 40 μM SKF-96365 with 1 Hz pacing",either reduced or eliminated abnormal automatic activity
COc1ccc(S(=O)(=O)N(CCO)c2ccccc2CN(C)C/C=C/c2ccc(Cl)cc2)cc1 [KN-93],after-contractions,[1]; [7],do not produce after-contractions; also recorded: suppression of after-contractions
methyl-β-cyclodextrin,after-contractions,"[1]; 10 mM MβC superfusion then wash, ~30 nM ATX-II, 20 min recording",produced no after-contractions
same,concentration as low as which ectopic contractions are effectively eliminated,[1]; cardiac muscle,10 mM
same,concentration as low as which after-depolarization is effectively eliminated,[2],10 mM
same,ARC channel activity,ARC channel,completely suppresses ARC channel activity
same,store-operated calcium channel (SOCC) activity,[5],only reducing the activity of the SOCC to a minor degree
ryanodine,after-contractions,[1]; [10],after-contractions continued to occur
same,mechanical force,[1]; [10],greatly diminished mechanical force
